Assay results reported in ChEMBL document CHEMBL1201862, “PubChem BioAssay data set” (2004).
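Assay format: 96-well plates, 48-hour exposure. The concentration for 50% growth inhibition is given as GI50.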 Calls of active or inactive are those of the source. No stated cut-off is given here; in the data, active = GI50 up to about 1.1 µM and inactive = higher.

Legend:
Assay in all cases: NCI-60 cell line screen, 48 h
A498 = system: A498
KM12 = system: KM12
MCF7 = system: MCF7
U-251 = system: U-251
COLO 205 = system: COLO 205
IGROV-1 = system: IGROV-1
NCI-H460 = system: NCI-H460
HOP-62 = system: HOP-62
ACHN = system: ACHN
NCI-H226 = system: NCI-H226
A549 = system: A549
OVCAR-4 = system: OVCAR-4
OVCAR-5 = system: OVCAR-5
SNB-75 = system: SNB-75
NCI-H522 = system: NCI-H522
Malme-3M = system: Malme-3M
SK-MEL-5 = system: SK-MEL-5
SK-MEL-28 = system: SK-MEL-28
UACC-62 = system: UACC-62
SK-MEL-2 = system: SK-MEL-2

Measured: GI50

O=C(NC(Cc1c[nH]c2ccccc12)C(=O)Nc1ccc(Br)cc1)OCc1ccccc1 (stereo not given)
inactive: A498 11.4 µM | KM12 6.31 µM | MCF7 10.4 µM | U-251 12 µM | COLO 205 12.1 µM | IGROV-1 9.12 µM | NCI-H460 6.22 µM | HOP-62 11 µM | ACHN 10.2 µM | NCI-H226 14.5 µM | A549 9.16 µM | OVCAR-4 9.14 µM | OVCAR-5 17.2 µM | SNB-75 14.7 µM | NCI-H522 10.1 µM | Malme-3M 11.4 µM | SK-MEL-5 10.7 µM | SK-MEL-28 14.3 µM | UACC-62 10.1 µM | SK-MEL-2 6.56 µM

Cc1n[nH]c(=O)n1-n1cccc1
inactive: A498 > 100 µM | KM12 > 100 µM | MCF7 > 100 µM | U-251 > 100 µM | COLO 205 > 100 µM | IGROV-1 > 100 µM | NCI-H460 > 100 µM | HOP-62 > 100 µM | ACHN > 100 µM | NCI-H226 > 100 µM | A549 > 100 µM | OVCAR-4 > 100 µM | OVCAR-5 > 100 µM | SNB-75 > 100 µM | NCI-H522 > 100 µM | Malme-3M > 100 µM | SK-MEL-5 > 100 µM | SK-MEL-28 > 100 µM | UACC-62 > 100 µM | SK-MEL-2 > 100 µM

Nc1ccc(Oc2ccc(C34CC5CC(C3)CC(c3ccc(Oc6ccc(N)cc6)cc3)(C5)C4)cc2)cc1
inactive: A498 12 µM | KM12 7.67 µM | MCF7 4.81 µM | U-251 5.43 µM | COLO 205 14.5 µM | IGROV-1 5.38 µM | NCI-H460 10.7 µM | HOP-62 17.5 µM | ACHN 19.5 µM | NCI-H226 26.5 µM | A549 11.1 µM | OVCAR-4 8.79 µM | OVCAR-5 18.6 µM | SNB-75 24 µM | NCI-H522 11.9 µM | Malme-3M 11.6 µM | SK-MEL-5 12.6 µM | SK-MEL-28 18.9 µM | UACC-62 10.4 µM | SK-MEL-2 13.1 µM

O=C(NCCCCCCCN1CCCCCCC1)C(C1CCCCC1)C1CCCCC1
inactive: A498 5.83 µM | KM12 6.75 µM | MCF7 7.16 µM | U-251 8.51 µM | COLO 205 2.81 µM | IGROV-1 12.3 µM | NCI-H460 9.1 µM | HOP-62 3.97 µM | ACHN 12 µM | NCI-H226 9.42 µM | A549 11.7 µM | OVCAR-4 9.38 µM | OVCAR-5 11 µM | SNB-75 9.79 µM | NCI-H522 14 µM | Malme-3M 3.34 µM | SK-MEL-5 2.42 µM | SK-MEL-28 6.08 µM | UACC-62 4.76 µM | SK-MEL-2 9.08 µM

CCCCCCCCCCCCCCCCOP(=O)([O-])OCC[N+](C)(C)C [MILTEFOSINE]
inactive: A498 12.9 µM | KM12 2.74 µM | MCF7 24.9 µM | U-251 15.3 µM | COLO 205 5.58 µM | IGROV-1 2.77 µM | NCI-H460 6 µM | HOP-62 14.9 µM | ACHN 16 µM | NCI-H226 20.7 µM | A549 7.11 µM | OVCAR-4 18.2 µM | OVCAR-5 8.17 µM | SNB-75 18.7 µM | NCI-H522 16.4 µM | Malme-3M 21.8 µM | SK-MEL-5 23.8 µM | SK-MEL-28 27.9 µM | UACC-62 20.2 µM | SK-MEL-2 21 µM
